In patent publication US6476056B2, “Heterocycle substituted aryloxyaniline derivatives and their use as MDR ligands” (Taisho Pharmaceutical Co., Ltd., priority 1997, dated 2002):
Where a name gives a salt, the structure may show the parent alone.

Each compound was assayed against T1, MDR (Rattus norvegicus, UniProt P16257) (assay: MDR receptor binding assay ([3H]PK11195 displacement)). Conditions: 50% inhibition of [3H]PK11195 (2 nM) binding; crude mitochondria fraction from rat cerebral cortex; 4° C., 90 minutes.
T1 construct: Crude mitochondria fractions prepared from rat cerebral cortex were used as a receptor sample; from tissue; host or cells: rat cerebral cortex, crude mitochondria fraction
Experimental: Experiment [MDR Receptor Binding Assay]
Crude mitochondria fractions prepared from rat cerebral cortex were used as a receptor sample, and [^3H]PK11195 was used as a [^3H]-labeled ligand.
A binding assay using the [^3H]-labeled ligand was carried out according to the following method as described in Journal of Pharmacology and Experimental Therapeutics, 262, 971(1992).
Preparation of Receptor Sample: Rat cerebral cortex was homogenized using a Teflon-coated homogenizer in a 10 mM HEPES buffer (pH 7.4) containing 0.32 M sucrose in ten volumes of the wet weight. The homogenate was centrifuged at 900×g for 10 minutes, and the resulting supernatant was centrifuged at 9,000×g for 10 minutes. The precipitate was suspended in a HEPES buffer to give a protein concentration of 1 mg/ml, and centrifuged at 12,000×g for 10 minutes. The resulting precipitate was suspended in a 50 mM HEPES buffer (pH 7.4) to give a crude mitochondria fraction.
MDR Binding Assay: Mitochondria sample (1.0 mg protein/ml), [^3H]PK11195 (2 nM) and the test drug were reacted at 4° C. for 90 minutes. After completion of the reaction, the reaction mixture was filtered with suction through a glass filter (GF/B) treated with 0.3% polyethyleneimine, and the radioactivity on the filter was measured by a liquid scintillation spectrometer.
The binding at the reaction in the presence of 10 μM PK11195 was defined as non-specific binding of [3H]PK11195, and the difference between total binding and non-specific binding was defined as specific binding.
`CNC(=O)N(Cc1ccccc1OC)c1ccccc1Oc1ccccc1` [Compound 090, N-(2-Methoxybenzyl)-N-(N-methylaminocarbonyl)-2-phenoxyaniline] showed an IC50 of 4640 pM. In the case of `CC(=O)c1ccccc1CN(C(C)=O)c1ccccc1Oc1ccccc1` [Compound 047, N-Acetyl-N-(2-acetylbenzyl)-2-phenoxyaniline], the IC50 is reported as 265 pM. `COc1ccccc1CN(C(C)=O)c1ccccc1Oc1cccc(F)c1` [Compound 108] was tested, and the IC50 was 413 pM. With `COc1ccccc1CN(C(=O)C(F)(F)F)c1ccccc1Oc1ccccc1` [Compound 080] the IC50 was 4640 pM. Work on `CCOC(=O)N(Cc1ccccc1OC)c1ccccc1Oc1ccccc1` [Compound 099] yielded an IC50 of 870 pM. `COc1ccc(Oc2ccccc2N(Cc2ccccc2OC)C(C)=O)cc1` [Compound 105] gave an IC50 of 163 pM. `CC(=O)N(Cc1ccccc1N1CCCC1)c1ccccc1Oc1ccccc1` [Compound 054, N-Acetyl-N-(2-pyrrolidinobenzyl)-2-phenoxyaniline monohydrochloride] gave an IC50 of 1260 pM. Work on `CC(=O)N(Cc1cccc(Cl)c1)c1ccccc1Oc1ccccc1` [Compound 030] yielded an IC50 of 1960 pM. `COc1ccncc1CN(C(C)=O)c1ccccc1Oc1ccccc1` [Compound 062] gave an IC50 of 1050 pM. Compound `CCCOc1ccccc1CN(C(=O)NC)c1ccccc1Oc1ccccc1` [Compound 092] has an IC50 of 722 pM. In the case of `CC(=O)N(Cc1ccccc1OC(C)C)c1ccc(Cl)cc1Oc1ccccc1` [Compound 008], the IC50 is reported as 870 pM. With `COc1cc(CN(C(C)=O)c2ccccc2Oc2ccccc2)cc(OC)c1` [Compound 025] the IC50 was 260 pM. Compound `CC(=O)N(Cc1ccccc1C=O)c1ccccc1Oc1ccccc1` [Compound 046, N-acetyl-N-(2-formylbenzyl)-2-phenoxyaniline] has an IC50 of 376 pM. For `CC(=O)N(Cc1ccccc1OCC(C)C)c1ccccc1Oc1ccccc1` [Compound 009], the IC50 was 112 pM. In the case of `COc1ccc(OC)c(CN(C(C)=O)c2cc(C)ccc2Oc2ccccc2)c1` [Compound 019], the IC50 is reported as 196 pM. With `COc1cccc(Oc2ccccc2N(Cc2ccccc2OC)C(C)=O)c1` [Compound 104] the IC50 was 343 pM. `CC(=O)N(Cc1ccccc1Br)c1ccccc1Oc1ccccc1` [Compound 033] was tested, and the IC50 was 3510 pM. `COC(=O)c1ccccc1CN(C(C)=O)c1ccccc1Oc1ccccc1` [Compound 040, N-acetyl-N-(2-methoxycarbonylbenzyl)-2-phenoxyaniline] was tested, and the IC50 was 64.3 pM. `CCOc1ccccc1CN(C=O)c1ccccc1Oc1ccccc1` [Compound 088] was tested, and the IC50 was 163 pM. `CCCCCOc1ccccc1CN(C(=O)NC)c1ccccc1Oc1ccccc1` [Compound 094] was tested, and the IC50 was 925 pM. Work on `COc1ccccc1CN(C(C)=O)c1ccccc1Oc1ccc(Cl)cc1` [Compound 110] yielded an IC50 of 8900 pM. `COc1ccc(Oc2ccccc2)c(N(Cc2ccccc2OC)C(C)=O)c1` [Compound 126] was tested, and the IC50 was 8110 pM. Compound `CSc1ccccc1CN(C(C)=O)c1ccccc1Oc1ccccc1` [Compound 034] has an IC50 of 179 pM. `COc1ccccc1N(C(C)=O)c1ccccc1Oc1ccccc1` [Compound 013, N-Acetyl-N-(2-methoxyphenyl)-2-phenoxyaniline] showed an IC50 of 9770 pM. Compound `COc1ccccc1CN(C=O)c1ccccc1Oc1ccccc1` [Compound 087] has an IC50 of 572 pM. Compound `COc1ccccc1CN(C(=O)C1CCC1)c1ccccc1Oc1ccccc1` [Compound 077] has an IC50 of 5590 pM. With `COc1ccc(OC)c(CN(C(C)=O)c2cc(F)ccc2Oc2ccccc2)c1` [Compound 021] the IC50 was 310 pM. Work on `COc1ccccc1CN(C(=O)CO)c1ccccc1Oc1ccccc1` [Compound 085, N-Hydroxyacetyl-N-(2-methoxybenzyl)-2-phenoxyaniline] yielded an IC50 of 3850 pM. For `CC(=O)N(Cc1ccccc1F)c1ccccc1Oc1ccccc1` [Compound 032], the IC50 was 6730 pM. `CC(=O)N(Cc1ccccc1OCCC(C)C)c1ccccc1Oc1ccccc1` [Compound 011] gave an IC50 of 163 pM. `COc1ccccc1CN(C(C)=O)c1c(F)cccc1Oc1ccccc1` [Compound 118] was tested, and the IC50 was 498 pM. `CC(=O)N(Cc1ccccc1[N+](=O)[O-])c1ccccc1Oc1ccccc1` [Compound 052, N-acetyl-N-(2-nitrobenzyl)-2-phenoxyaniline] was tested, and the IC50 was 4640 pM. Compound `CCCOc1ccccc1CN(C(=O)CC)c1ccc(Cl)cc1Oc1ccccc1` [Compound 067] has an IC50 of 1080 pM. `CC(=O)N(Cc1ccc(N(C)C)cc1)c1ccccc1Oc1ccccc1` [Compound 055] was tested, and the IC50 was 1830 pM. `CCOc1ccccc1CN(C(=O)NC)c1ccccc1Oc1ccccc1` [Compound 091] gave an IC50 of 1830 pM. `COc1cccnc1CN(C(C)=O)c1ccccc1Oc1ccccc1` [Compound 060] was tested, and the IC50 was 955 pM. With `CCCC(=O)N(Cc1ccccc1OC)c1ccccc1Oc1ccccc1` [Compound 071] the IC50 was 1260 pM. `COc1ccccc1C(C)N(C(C)=O)c1ccccc1Oc1ccccc1` (stereo not drawn) [Compound 014] gave an IC50 of 2210 pM. `COc1ccccc1CN(C(C)=O)c1ccccc1Oc1ccccc1OC` [Compound 103] was tested, and the IC50 was 722 pM. Compound `COc1ccccc1CN(C(=O)C1CC1)c1ccccc1Oc1ccccc1` [Compound 076] has an IC50 of 955 pM. Compound `COc1ccccc1CN(C(C)=O)c1ccccc1Oc1cccc(C)c1` [Compound 101] has an IC50 of 285 pM. Compound `COc1ccccc1CN(C(C)=O)c1ccc(Cl)cc1Oc1ccccc1` [Compound 120] has an IC50 of 196 pM. `COc1ccccc1CN(C(N)=O)c1ccccc1Oc1ccccc1` [Compound 089, N-Aminocarbonyl-N-(2-methoxybenzyl)-2-phenoxyaniline] showed an IC50 of 3510 pM. `COc1ccc(CN(C(C)=O)c2ccccc2Oc2ccccc2)c(OC)c1` [Compound 016, N-Acetyl-N-(2,4-dimethoxybenzyl)-2-phenoxyaniline] was tested, and the IC50 was 722 pM. `CC(=O)N(Cc1ccc(Cl)cc1)c1ccccc1Oc1ccccc1` [Compound 031] showed an IC50 of 1230 pM. For `CCOc1ccccc1CN(C(C)=O)c1ccc(Cl)cc1Oc1ccccc1` [Compound 004], the IC50 was 791 pM. Work on `CCOc1ccccc1CN(C(=O)CC)c1ccc(Cl)cc1Oc1ccccc1` [Compound 066] yielded an IC50 of 925 pM. `CCC(=O)N(Cc1ccccc1OC)c1ccccc1Oc1ccccc1` [Compound 064] showed an IC50 of 93.3 pM. For `COc1ccccc1CN(C(C)=O)c1ccccc1Oc1ccc(C)cc1` [Compound 102], the IC50 was 123 pM. Work on `CNC(=O)N(Cc1cc(OC)ccc1OC)c1ccccc1Oc1ccccc1` [Compound 095, N-(2,5-Dimethoxybenzyl)-N-(N-methylaminocarbonyl)-2-phenoxyaniline] yielded an IC50 of 3770 pM. `CC(=O)N(Cc1ccccc1O)c1ccccc1Oc1ccccc1` [Compound 027, N-acetyl-N-(2-hydroxybenzyl)-2-phenoxyaniline] was tested, and the IC50 was 3200 pM. With `CC(=O)Oc1ccccc1CN(C(C)=O)c1ccccc1Oc1ccccc1` [Compound 028, N-acetyl-N-(2-acetyloxybenzyl)-2-phenoxyaniline] the IC50 was 3200 pM. `COc1ccccc1CN(C(C)=O)c1ccccc1Oc1ccc(F)cc1F` [Compound 112] showed an IC50 of 376 pM. For `CCCOc1ccccc1CN(C(C)=O)c1ccccc1Oc1ccccc1` [Compound 005], the IC50 was 118 pM. In the case of `COc1ccccc1CN(C(=O)C(C)C)c1ccccc1Oc1ccccc1` [Compound 072], the IC50 is reported as 3510 pM. Compound `COc1ccc(OC)c(CN(C(C)=O)c2cc(Cl)ccc2Oc2ccccc2)c1` [Compound 023] has an IC50 of 424 pM. `CCCCCOc1ccccc1CN(C(C)=O)c1ccccc1Oc1ccccc1` [Compound 010] gave an IC50 of 149 pM. Compound `CCCCCC(=O)N(Cc1ccccc1OC)c1ccccc1Oc1ccccc1` [Compound 075] has an IC50 of 1830 pM. `C=Cc1ccccc1CN(C(C)=O)c1ccccc1Oc1ccccc1` [Compound 051] gave an IC50 of 196 pM. With `COc1ccccc1CN(C(C)=O)c1ccc(Oc2ccccc2)cc1Oc1ccccc1` [Compound 127] the IC50 was 3510 pM. `CCCOc1ccccc1CN(C(C)=O)c1ccc(Cl)cc1Oc1ccccc1` [Compound 006] showed an IC50 of 677 pM. `CC(=O)N(Cc1ccccc1)c1ccccc1Oc1ccccc1` [Compound 056] was tested, and the IC50 was 2920 pM. Compound `COc1cccc(CN(C(C)=O)c2ccccc2Oc2ccccc2)c1OC` [Compound 015] has an IC50 of 285 pM. In the case of `CCOc1ccccc1CN(C(C)=O)c1ccccc1Oc1ccccc1` [Compound 003], the IC50 is reported as 123 pM. In the case of `COc1ccc(OC)c(CN(C(C)=O)c2ccc(Cl)cc2Oc2ccccc2)c1` [Compound 022], the IC50 is reported as 179 pM. With `CC(=O)N(Cc1ccccc1OC(C)C)c1ccccc1Oc1ccccc1` [Compound 007, N-Acetyl-N-(2-isopropoxybenzyl)-2-phenoxyaniline] the IC50 was 97.7 pM. With `CCCc1ccccc1CN(C(C)=O)c1ccccc1Oc1ccccc1` [Compound 050, N-Acetyl-N-(2-propylbenzyl)-2-phenoxyaniline] the IC50 was 215 pM. `COc1ccccc1CN(C(C)=O)c1ccccc1Oc1ccc(F)cc1` [Compound 109] showed an IC50 of 285 pM. In the case of `COc1ccccc1CN(C(C)=O)c1ccc(F)cc1Oc1ccccc1` [Compound 116], the IC50 is reported as 343 pM. `CCCCC(=O)N(Cc1ccccc1OC)c1ccccc1Oc1ccccc1` [Compound 073] gave an IC50 of 1520 pM. With `COc1ccccc1CN(C(=O)CCl)c1ccccc1Oc1ccccc1` [Compound 081, N-chloroacetyl-N-(2-methoxybenzyl)-2-phenoxyaniline] the IC50 was 343 pM. `COc1ccccc1CN(C(=O)c1ccccc1)c1ccccc1Oc1ccccc1` [Compound 079] was tested, and the IC50 was 4640 pM.
